Experimental data published in patent US7294637B2 (Sepracor, Inc., priority 2000, dated 2007).
Like-named read-outs stand apart in the source and are kept apart here.

Legend:
rats [1] = assay: Behavioral despair assay in rats, 3 i.p. injections (Example 143); type: in vivo, rat; conditions: for % variation of the total duration of immobility: 3 i.p. injections 24 h, 5 h and 1 h before test
Description: The objective of this study was to assess the antidepressant effects of test compounds 124, 125, 126, and 127 in the behavioral despair assay in rats according to the methods described by Porsolt R. D., Anton G., Blavet N., Jalfre M., Behavioural despair in rats: a new model sensitive to antidepressant treatment, Eur. J. Pharmacol., 1978, 47, 379-391. The animals were preconditioned in a pretest session, where the rats were individually forced to swim inside a vertical plexiglass cylinder containing water maintained at 19-20° C. After 15 minutes in the water, they were allowed to dry for 15 minutes in a heated enclosure. Twenty four hours later, they were replaced in the cylinder and the total duration of immobility was measured during a 5 minute test (test session). The test compounds and vehicle were administered as a series of 3 intraperitoneal injections 24 h, 5 h and 1 h before the 5 minute test on the second day.
(§1) The results are expressed as the percentage of variation of the total duration of immobility calculated from the mean value of the vehicle-treated group (% variation=[(immobility duration of vehicle-immobility duration of test compound)/(immobility duration of vehicle)]×100%).

[2] = molecular target: T1, norepinephrine transporter (Homo sapiens, UniProt P23975); assay: NE uptake: displacement of norephinephrine ligands in vitro (methods of Galli et al.); type: binding
serotonin transporter [3] = molecular target: T2, serotonin transporter (Homo sapiens, UniProt P31645); assay: 5-HT uptake: displacement of serotonin ligands in vitro (methods of Gu et al.); type: binding; conditions: displacement of serotonin ligands in vitro; read-out: 5-HT Uptake, Uptake Profile (IC50)
[4] = molecular target: T1, norepinephrine transporter; assay: Functional activity, norephinephrine uptake inhibition in MDCK cell lines; type: cell-based
mouse = assay: Acute toxicity assessment, maximum tolerated dose i.v., mouse; type: in vivo; conditions: mice
Method: (§2) An in vivo evaluation was carried out to determine the maximum tolerated dose of numerous test compounds in two animal species (mouse and rat). The compounds were administered i.v. and the animals were then observed for 72 h. Compounds 114, 115, 113, 110, 124, 125, 129, and 130 were solubilized in 5% dextrose (w/v)/polyethylene glycol 400 (4:1 v/v). Compounds 126, 127, 131, and 132 were solubilized in 10% hydroxypropyl-β-cyclodextrin (w/v).

rat = assay: Acute toxicity assessment, maximum tolerated dose i.v., rat; type: in vivo; conditions: rats
Method: as §2

DAT = DAT (Homo sapiens, UniProt Q01959); assay: cell-based; set-up: expressed in transfected cells; conditions: hDAT cell line; read-out: DA Uptake, Functional Assays (antagonism, EC50)
serotonin transporter [5] = molecular target: T2, serotonin transporter; assay: Functional activity, serotonin uptake inhibition in human HEK-293 cell lines; type: cell-based; set-up: expressed in transfected cells; host or cells: HEK-293; conditions: human HEK-293 cell lines; read-out: 5-HT Uptake, Functional Assays (antagonism, EC50)
dopamine transporter = dopamine transporter (Homo sapiens, UniProt Q01959); assay: DA uptake: displacement of dopamine ligands in vitro (methods of Gu et al.); conditions: DA Uptake, Uptake Profile (IC50, nM), displacement of dopamine ligands in vitro
rats [6] = type: in vivo, rat
Method: The animals were preconditioned in a pretest session, where the rats were individually forced to swim inside a vertical plexiglass cylinder containing water maintained at 19-20° C. […] Twenty four hours later, the compounds were administered intraperitoneal to the animals. One hour after administration of the test compound, animals were put back into the cylinder containing water. The total duration of immobility was measured during the last 4 minutes of a 6 minute test.
as §1

[7] = NE Uptake, Uptake Profile (IC50, nM)

T2 sequence (P31645 whole entry): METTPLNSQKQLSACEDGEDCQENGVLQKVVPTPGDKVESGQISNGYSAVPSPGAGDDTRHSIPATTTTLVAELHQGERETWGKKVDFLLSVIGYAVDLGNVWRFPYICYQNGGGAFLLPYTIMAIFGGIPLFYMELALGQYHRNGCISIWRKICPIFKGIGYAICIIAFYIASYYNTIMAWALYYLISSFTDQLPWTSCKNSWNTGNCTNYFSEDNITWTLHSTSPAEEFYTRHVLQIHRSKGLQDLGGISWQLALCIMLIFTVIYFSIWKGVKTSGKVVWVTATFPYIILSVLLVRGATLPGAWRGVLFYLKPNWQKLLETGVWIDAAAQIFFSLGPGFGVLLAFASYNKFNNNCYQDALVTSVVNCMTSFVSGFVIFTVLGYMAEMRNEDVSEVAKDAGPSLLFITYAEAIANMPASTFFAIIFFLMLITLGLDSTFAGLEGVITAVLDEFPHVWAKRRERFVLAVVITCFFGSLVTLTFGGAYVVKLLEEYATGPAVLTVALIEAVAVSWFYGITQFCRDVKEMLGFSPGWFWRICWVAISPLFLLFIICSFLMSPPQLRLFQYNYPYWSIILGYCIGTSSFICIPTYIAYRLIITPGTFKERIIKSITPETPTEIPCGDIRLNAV
dopamine transporter, sequence (Q01959 whole entry): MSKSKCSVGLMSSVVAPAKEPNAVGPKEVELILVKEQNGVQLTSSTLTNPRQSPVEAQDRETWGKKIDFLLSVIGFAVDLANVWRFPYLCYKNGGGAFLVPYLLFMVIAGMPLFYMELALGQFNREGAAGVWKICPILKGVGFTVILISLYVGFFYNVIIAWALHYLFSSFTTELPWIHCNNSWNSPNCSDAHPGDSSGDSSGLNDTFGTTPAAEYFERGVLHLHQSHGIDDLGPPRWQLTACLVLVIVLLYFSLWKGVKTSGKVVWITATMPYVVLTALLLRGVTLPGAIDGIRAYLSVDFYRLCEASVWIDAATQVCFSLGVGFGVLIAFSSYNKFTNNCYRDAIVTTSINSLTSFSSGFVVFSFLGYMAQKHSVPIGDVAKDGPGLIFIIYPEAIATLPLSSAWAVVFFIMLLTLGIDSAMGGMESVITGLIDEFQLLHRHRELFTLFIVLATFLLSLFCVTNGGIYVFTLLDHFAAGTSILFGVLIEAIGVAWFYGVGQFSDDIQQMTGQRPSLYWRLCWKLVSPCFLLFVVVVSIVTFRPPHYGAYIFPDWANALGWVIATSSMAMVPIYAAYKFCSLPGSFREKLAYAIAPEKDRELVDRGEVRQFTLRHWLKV
DAT, sequence (Q01959 whole entry): as above
T1 sequence (P23975 whole entry): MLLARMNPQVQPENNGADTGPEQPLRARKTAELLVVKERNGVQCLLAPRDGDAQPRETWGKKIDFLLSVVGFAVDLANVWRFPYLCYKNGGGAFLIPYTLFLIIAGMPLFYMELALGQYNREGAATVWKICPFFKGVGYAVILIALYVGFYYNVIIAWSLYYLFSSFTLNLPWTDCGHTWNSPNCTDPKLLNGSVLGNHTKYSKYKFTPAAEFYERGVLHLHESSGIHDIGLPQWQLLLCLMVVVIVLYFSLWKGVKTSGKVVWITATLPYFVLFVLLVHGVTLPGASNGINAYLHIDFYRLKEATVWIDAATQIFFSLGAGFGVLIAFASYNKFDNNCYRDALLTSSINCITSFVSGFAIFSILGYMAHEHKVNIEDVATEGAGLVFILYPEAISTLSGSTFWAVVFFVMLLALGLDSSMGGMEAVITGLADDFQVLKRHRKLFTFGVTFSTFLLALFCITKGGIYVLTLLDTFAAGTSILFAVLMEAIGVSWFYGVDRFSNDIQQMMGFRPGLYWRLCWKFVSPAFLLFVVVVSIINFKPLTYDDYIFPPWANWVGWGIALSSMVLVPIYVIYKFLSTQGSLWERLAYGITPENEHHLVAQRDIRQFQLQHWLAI

SMILES | IC50 [2, 7] | IC50 (serotonin transporter [3]) | EC50 [4] | tolerability and mortality after 72 h (rat; 30 mg/kg i.v.) | EC50 (DAT) | EC50 (serotonin transporter [5]) | IC50 (dopamine transporter) | tolerability and mortality after 72 h (mouse; 30 mg/kg i.v.) | also measured
CN(C)CCCN1c2ccccc2CCc2ccccc21 [Imipramine] |  |  |  |  |  |  |  |  | % variation of the total duration of immobility (rats [1]; 30 mg/kg): 55%
FC(F)(F)c1ccc(COC[C@H]2CCCN(CC3(c4ccc(Cl)cc4)CCC3)C2)cc1 [compound 129, S-1-[1-(4-Chloro-phenyl)-cyclobutylmethyl]-3-(4-trifluoromethyl-benzyloxymethyl)-piperidine] | < 100 nM | > 1000 nM | < 100 nM | well tolerated | < 10 nM | < 100 nM | < 10 nM |  | tolerability after 72 h (mouse; 20 mg/kg i.v.): well tolerated
OC(CN1CCCC(CCc2ccccc2)C1)c1ccc(Cl)cc1 (single isomer, unassigned) [compound 143, 1-(4-Chloro-phenyl)-2-(3-phenethyl-piperidin-1-yl)-ethanol] | < 100 nM | < 10 nM |  |  |  |  | < 100 nM |  | tolerability and mortality after 72 h (mouse; 5 mg/kg i.v.): tolerated; tolerability and mortality after 72 h (rat; 5 mg/kg i.v.): tolerated
FC(F)(F)c1ccc(COC[C@@H]2CCCN(CC3(c4ccc(Cl)cc4)CCC3)C2)cc1 [compound 130, R-1-[1-(4-Chloro-phenyl)-cyclobutylmethyl]-3-(4-trifluoromethyl-benzyloxymethyl)-piperidine] | < 1000 nM | < 1000 nM | < 100 nM | well tolerated | < 10 nM | > 1000 nM | < 100 nM | well tolerated | 
OC[C@H]1[C@@H](COc2ccc(C(F)(F)F)cc2)CCCN1CC1(c2ccc(Cl)cc2)CCC1 (single isomer, unassigned) [compound 132, cis-[1-[1-(4-chloro-phenyl)-cyclobutylmethyl]-3-(4-trifluoromethyl-phenoxymethyl)-piperidin-2-yl]-methanol] | < 100 nM | < 1000 nM |  | well tolerated |  |  | < 10 nM | well tolerated | 
O[C@@H](CN1CCC[C@@H](COc2ccc(C(F)(F)F)cc2)C1)C1(c2ccc(Cl)cc2)CCC1 [compound 127, 1S-1-[1-(4-Chloro-phenyl)-cyclobutyl]-2-[(3R)-3-(4-trifluoromethyl-phenoxymethyl)-piperidin-1-yl]-ethanol] | < 100 nM | > 1000 nM | < 1000 nM | well tolerated | < 10 nM | > 1000 nM | < 10 nM | well tolerated | % variation of the total duration of immobility (rats [6]; 2.5 mg/kg i.p., 1 h before test): 25%; % variation of the total duration of immobility (rats [6]; 10 mg/kg i.p., 1 h before test): 67%; % variation of the total duration of immobility (rats [1]; 1.0 mg/kg): 14%; % variation of the total duration of immobility (rats [1]; 2.0 mg/kg): 39%; effectiveness (statistically significant variation >30%) (rats [1]; 2.5 mg/kg): effective; % variation of the total duration of immobility (rats [1]; 2.5 mg/kg): 39%; % variation of the total duration of immobility (rats [1]; 3.0 mg/kg): 64%
OC(CN1CCCC(CCc2ccccc2)C1)c1ccc(Cl)cc1 (single isomer, unassigned) [compound 144, 1-(4-Chloro-phenyl)-2-(3-phenethyl-piperidin-1-yl)-ethanol] | < 100 nM | < 10 nM |  |  |  |  | < 10 nM |  | tolerability and mortality after 72 h (mouse; 5 mg/kg i.v.): tolerated; tolerability and mortality after 72 h (rat; 5 mg/kg i.v.): tolerated
Clc1ccc(C2(CN3CCCC(COc4ccc5c(c4)OCO5)C3)CCC2)cc1 (stereo not drawn) [compound 83] | < 1000 nM | < 1000 nM | < 1000 nM |  | < 10 nM | < 100 nM | < 100 nM |  | 
O[C@@H](CN1CCC[C@H](COc2ccc(C(F)(F)F)cc2)C1)C1(c2ccc(Cl)cc2)CCC1 [compound 125, 1R-1-[1-(4-Chloro-phenyl)-cyclobutyl]-2-[(3S)-3-(4-trifluoromethyl-phenoxymethyl)-piperidin-1-yl]-ethanol] | < 100 nM | < 1000 nM | < 1000 nM | well tolerated | < 10 nM | < 1000 nM | < 10 nM | well tolerated | % variation of the total duration of immobility (rats [6]; 10 mg/kg i.p., 1 h before test): 55%; % variation of the total duration of immobility (rats [1]; 2.5 mg/kg): 12%
CN1Cc2c(N)cccc2C(c2ccccc2)C1 (stereo not drawn) [nomifensine, reference compound] |  |  |  |  |  |  |  |  | % variation of the total duration of immobility (rats [6]; rat, in vivo): 78%
OC(CN1CCCC(COc2ccc(C(F)(F)F)cc2)C1)C1(c2ccccc2OC(F)(F)F)CCC1 (single isomer, unassigned) [compound 225, 1-[1-(2-Trifluoromethoxy-phenyl)-cyclobutyl]-2-[3-(4-trifluoromethyl-phenoxymethyl)-piperidin-1-yl]-ethanol] |  | < 1000 nM |  |  | > 1000 nM | > 1000 nM | < 10 nM |  | IC50 ([2]; read-out: NE Uptake, Uptake Profile (IC50)): > 1000 nM; EC50 ([4]; read-out: NE Uptake, Functional Assays (antagonism, EC50), MDCK cell lines): > 1000 nM
OC[C@H]1[C@@H](COc2ccc(C(F)(F)F)cc2)CCCN1CC1(c2ccc(Cl)cc2)CCC1 (single isomer, unassigned) [compound 131, cis-[1-[1-(4-chloro-phenyl)-cyclobutylmethyl]-3-(4-trifluoromethyl-phenoxymethyl)-piperidin-2-yl]-methanol] | < 1000 nM | < 1000 nM |  | well tolerated |  |  | < 100 nM | well tolerated | 
